Measurements reported in patent publication US12617831B2 (UNIVERSITE D'ANGERS, priority 2019, dated 2026).

How the values were obtained:
[1] = molecular target: T1, human GIPr (Homo sapiens, UniProt P48546); assay: Cyclic AMP assay (FRET, H74 probe), HEK-293 transfected with human GIPr; format: cell-based; conditions: HEK 293 transfected only with human GIPr, 10^-9 M, 30 min (FIG. 16)
T1 construct: host or cells: HEK-293
T1 sequence (P48546 22-466): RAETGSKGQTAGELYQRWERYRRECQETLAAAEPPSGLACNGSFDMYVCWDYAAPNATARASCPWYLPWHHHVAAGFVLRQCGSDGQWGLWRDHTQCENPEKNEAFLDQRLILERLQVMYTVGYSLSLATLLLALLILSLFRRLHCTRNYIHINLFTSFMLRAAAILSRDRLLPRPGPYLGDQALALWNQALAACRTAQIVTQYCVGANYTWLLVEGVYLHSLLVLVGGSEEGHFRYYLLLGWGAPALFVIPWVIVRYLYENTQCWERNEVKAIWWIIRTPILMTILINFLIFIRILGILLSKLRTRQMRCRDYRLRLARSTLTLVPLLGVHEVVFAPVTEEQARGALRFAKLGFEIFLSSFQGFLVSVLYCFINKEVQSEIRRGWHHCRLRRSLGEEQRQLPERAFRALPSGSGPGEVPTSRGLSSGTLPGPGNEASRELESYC
Description: Human HEK-293 cells were plated at a density of 2×10^5 cells/cm^2 in 4 well microslides (ibidi GmbH, Martinsried, Germany). […] Jalink (Netherland Cancer Institute, Amsterdam, Netherland). […] The image acquisition was performed with a 63 X, 1.4 N.A. oil immersion objective and a Hybrid® detector (Leica) and images were collected after 30 minutes. Donor excitation was made with a 458 nm Ar laser, donor emission was collected between 460-505 nm and acceptor emission between 520-600 nm by setting the SP8 spectrometer accordingly. FRET was expressed as the ratio between donor and acceptor signals.

[2] = tested on: ovariectomy-induced bone loss in mice; assay: Trabecular bone microarchitecture, fifth lumbar vertebra, ovariectomized mice; format: in vivo; conditions: OVX mice, L5, 25 nmoles/kg/day, vs vehicle
Description: At 16 weeks of age, ALZET osmotic pumps (model number 2006, Durect Corp., Cupertino, CA) filled with the below saline or peptide were implanted subcutaneously between the two scapula under general anesthesia in 32 mice. Successful filling of pumps was verified by weighting the pump before and after filling. At 20 weeks of age, ALZET osmotic pumps were replaced by similar pumps to ensure delivery for four new weeks. […] This dose and regimen of zoledronic acid was equivalent to the 5 mg infusion approved for the treatment of post-menopausal osteoporosis in humans. Analyses of vertebral bodies of the fifth lumbar vertebra (L5) were performed with a Nanotom nanotomograph (Phoenix, GE, USA) operated at 85 kV, 220 μA, 1000 ms integration time. The isotropic pixel size was fixed at 4 μm, the rotation step at 0.25° and exposure was done with a 0.1 mm copper filter. Each 3D reconstruction image dataset was binarized using global thresholding. Trabecular volume of interest was computerized on coronal sections of the L5 vertebral body. Trabecular VOI was spread over the entire vertebral body excluding the first and last 80 μm from the anterior and posterior cortical wall. All microCT/NanoCT parameters were determined according to guidelines and nomenclature proposed by the American Society for Bone and Mineral Research (Bouxsein et al., 2010).

SMILES	intracellular levels of cAMP [1]	reduction in trabecular spacing [2]
CC[C@H](C)[C@H](NC(=O)[C@H](CO)NC(=O)[C@H](CCSC)NC(=O)[C@H](CC(=O)O)NC(=O)[C@H](CO)NC(=O)CNC(=O)[C@H](Cc1ccccc1)NC(=O)[C@H](CO)NC(=O)CNC(=O)[C@H](CCC(=O)O)NC(=O)CNC(=O)[C@@H](N)Cc1c[nH]cn1)C(=O)N[C@@H](C)C(=O)N[C@@H](CC(C)C)C(=O)N[C@@H](CC(=O)O)C(=O)N[C@@H](CCCCN)C(=O)N[C@@H](CC(C)C)C(=O)N[C@@H](C)C(=O)N[C@@H](C)C(=O)N[C@@H](CCCNC(=N)N)C(=O)N[C@@H](CC(=O)O)C(=O)N[C@@H](Cc1ccccc1)C(=O)N[C@H](C(=O)N[C@@H](CC(N)=O)C(=O)N[C@@H](Cc1c[nH]c2ccccc12)C(=O)N[C@@H](CC(C)C)C(=O)N[C@@H](CC(C)C)C(=O)N[C@@H](CCC(N)=O)C(=O)N[C@H](C(=O)N[C@@H](CCCCN)C(=O)N[C@H](C(=O)N[C@H](C(=O)N[C@@H](CC(=O)O)C(=O)O)[C@@H](C)O)[C@@H](C)CC)[C@@H](C)O)C(C)C [GL-0001]	increased intracellular levels of cAMP	–
CC[C@H](C)[C@H](NC(=O)[C@H](CO)NC(=O)[C@H](Cc1ccccc1)NC(=O)[C@H](CC(=O)O)NC(=O)[C@H](CO)NC(=O)CNC(=O)[C@H](Cc1ccccc1)NC(=O)[C@H](CO)NC(=O)CNC(=O)[C@H](CCC(=O)O)NC(=O)CNC(=O)[C@@H](N)Cc1c[nH]cn1)C(=O)N[C@@H](C)C(=O)N[C@@H](CC(C)C)C(=O)N[C@@H](CC(=O)O)C(=O)N[C@@H](CCCCN)C(=O)N[C@@H](CC(C)C)C(=O)N[C@@H](C)C(=O)N[C@@H](C)C(=O)N[C@@H](CCCNC(=N)N)C(=O)N[C@@H](CC(=O)O)C(=O)N[C@@H](Cc1ccccc1)C(=O)N[C@H](C(=O)N[C@@H](CC(N)=O)C(=O)N[C@@H](Cc1c[nH]c2ccccc12)C(=O)N[C@@H](CC(C)C)C(=O)N[C@@H](CC(C)C)C(=O)N[C@@H](CCC(N)=O)C(=O)N[C@H](C(=O)N[C@@H](CCCCN)C(N)=O)[C@@H](C)O)C(C)C [GL-0007]	–	17%
